According to patent US20140162980A1, “NOVEL MICROBIOCIDAL DIOXIME ETHER DERIVATIVES” (SYNGENTA CROP PROTECTION LLC, priority 2010, published 2014):

Tests used:
[1] = test system: Blumeria graminis f. sp. tritici (Erysiphe graminis f. sp. tritici); test: Blumeria graminis f. sp. tritici / wheat / leaf disc preventative (powdery mildew on wheat); type: in vivo; settings: foliar, wheat leaf segments cv. Kanzler, inoculated 1 day after application, assessed 6-8 days after application, read-out: control of Blumeria graminis (percent disease control compared to untreated)
Description: Blumeria Graminis f. Sp. Tritici (Erysiphe Graminis f. Sp. Tritici)/Wheat/Leaf Disc Preventative (Powdery Mildew on Wheat):
Wheat leaf segments cv. Kanzler were placed on agar in a 24-well plate and sprayed with the formulated test compound diluted in water at an application rate of 200 ppm. The leaf disks were inoculated by shaking powdery mildew infected plants above the test plates 1 day after application. The inoculated leaf disks were incubated at 20° C. and 60% relative humidity under a light regime of 24 h darkness followed by 12 h/12 h (dark/light) in a climate chamber and the activity of a compound was assessed as percent disease control compared to untreated when an appropriate level of disease damage appears on untreated check leaf segments (6-8 days after application). The following compounds gave at least 80% control of Blumeria graminis: […]

Pyrenophora teres = Pyrenophora teres / barley / leaf disc preventative (net blotch); type: in vivo; settings: foliar, barley leaf segments cv Hasso, inoculated two days after application, assessed 5-7 days after application, read-out: control of Pyrenophora teres (disease control compared to untreated)
Description: Pyrenophora Teres/Barley/Leaf Disc Preventative (Net Blotch): Barley leaf segments cv Hasso are placed on agar in a 24-well plate and sprayed with formulated test compound diluted in water at an application rate of 200 ppm. The leaf segments are inoculated with a spore suspension of the fungus two days after application of the test solution. The inoculated leaf segments are incubated at 20° C. and 65% relative humidity under a light regime of 12/12 h (light/dark) in a climate cabinet and the activity of a compound is assessed as disease control compared to untreated when an appropriate level of disease damage appears in untreated check leaf segments (5-7 days after application).

[2] = test system: Puccinia recondita f. sp. tritici; test: Puccinia recondita f. sp. tritici / wheat / leaf disc preventative (brown rust); type: in vivo; settings: foliar, wheat leaf segments cv Kanzler, inoculated 1 day after application, assessed 7-9 days after application, read-out: control of Puccinia recondita f. sp. tritici, preventative (percent disease control compared to untreated)
Description: Puccinia Recondita f. Sp. Tritici/Wheat/Leaf Disc Preventative (Brown Rust): Wheat leaf segments cultivated variety (cv) Kanzler were placed on agar in 24-well plates and sprayed with formulated test compound diluted in water at an application rate of 200 ppm. The leaf disks were inoculated with a spore suspension of the fungus 1 day after application. The inoculated leaf segments were incubated at 19° C. and 75% relative humidity under a light regime of 12/12 h (light/dark) in a climate cabinet and the activity of a compound was assessed as percent disease control compared to untreated when an appropriate level of disease damage appears in untreated check leaf segments (7-9 days after application).

[3] = test system: Puccinia recondita f. sp. tritici; test: Puccinia recondita f. sp. tritici / wheat / leaf disc curative (brown rust); type: in vivo; settings: foliar, 200 ppm applied 1 day after inoculation, wheat leaf segments cv Kanzler, assessed 6-8 days after application, read-out: control of Puccinia recondita f. sp. tritici, curative (percent disease control compared to untreated)
Description: Puccinia Recondita f. Sp. Tritici/Wheat/Leaf Disc Curative (Brown Rust): Wheat leaf segments cv Kanzler were placed on agar in 24-well plates. The leaf segments were inoculated with a spore suspension of the fungus. The plates were stored in darkness at 19° C. and 75% relative humidity. The formulated test compound diluted in water was applied at an application rate of 200 ppm 1 day after inoculation.

Pythium ultimum = Pythium ultimum / liquid culture (seedling damping off); type: cell-based; settings: Globisporangium ultimum, PDB potato dextrose broth, 24° C., 2-3 days after application, read-out: control of Pythium ultimum (inhibition of growth, photometrically)
Description: Pythium Ultimum/Liquid Culture (Seedling Damping Off): Mycelia fragments and oospores of a newly grown liquid culture of the fungus were directly mixed into nutrient broth (PDB potato dextrose broth). After placing a DMSO solution of test compound into a 96 well microtiter plate at an application rate 200 ppm, the nutrient broth containing the fungal mycelia/spore mixture was added. The test plates were incubated at 24° C. and the inhibition of growth was determined photometrically 2-3 days after application.

[4] = test system: Botryotinia fuckeliana (Botrytis cinerea); test: Botryotinia fuckeliana (Botrytis cinerea) / liquid culture (gray mould); type: cell-based; settings: Vogels broth, 24° C., 3-4 days after application, read-out: control of Botryotinia fuckeliana (inhibition of growth, photometrically)
Description: Botryotinia Fuckeliana (Botrytis cinerea)/Liquid Culture (Gray Mould): Conidia of the fungus from cryogenic storage were directly mixed into nutrient broth (Vogels broth). After placing a DMSO solution of test compound into a 96-well microtiter plate at an application rate 200 ppm, the nutrient broth containing the fungal spores was added. The test plates were incubated at 24° C. and the inhibition of growth was determined photometrically 3-4 days after application.

[5] = test system: Phaeosphaeria nodorum (Septoria nodorum); test: Phaeosphaeria nodorum (Septoria nodorum) / wheat / leaf disc preventative (glume blotch); type: in vivo; settings: Parastagonospora nodorum, foliar, wheat leaf segments cv Kanzler, inoculated 2 days after application, assessed 5-7 days after application, read-out: control of Phaeosphaeria nodorum (percent disease control compared to untreated)
Description: Phaeosphaeria Nodorum (Septoria nodorum)/Wheat/Leaf Disc Preventative (Glume Blotch): Wheat leaf segments cv Kanzler were placed on agar in a 24-well plate and sprayed with formulated test compound diluted in water at an application rate of 200 ppm. The leaf disks are inoculated with a spore suspension of the fungus 2 days after application. The inoculated test leaf disks are incubated at 20° C. and 75% relative humidity under a light regime of 12/12 h (light/dark) in a climate cabinet and the activity of a compound is assessed as percent disease control compared to untreated when an appropriate level of disease damage appears in untreated check leaf disks (5-7 days after application).

[6] = test system: Thanatephorus cucumeris (Rhizoctonia solani); test: Thanatephorus cucumeris (Rhizoctonia solani) / liquid culture (foot rot, damping-off); type: cell-based; settings: PDB potato dextrose broth, 24° C., 3-4 days after application, read-out: control of Thanatephorus cucumeris (inhibition of growth, photometrically)
Description: Thanatephorus Cucumeris (Rhizoctonia solani)/Liquid Culture (Foot Rot, Damping-Off): Mycelia fragments of a newly grown liquid culture of the fungus are directly mixed into nutrient broth (PDB potato dextrose broth). After placing a DMSO solution of the test compounds into a 96-well microtiter plate at an application rate 200 ppm, the nutrient broth containing the fungal material was added. The test plates were incubated at 24° C. and the inhibition of growth was determined photometrically 3-4 days after application.

Phytophthora infestans = test: whole plant or invertebrate; type: in vivo; settings: in Solanum lycopersicum, foliar, read-out: control of Phytophthora infestans (percent disease control compared to untreated)
[7] = test system: Magnaporthe grisea (Pyricularia oryzae); test: whole plant or invertebrate; type: in vivo; settings: foliar, read-out: control of Magnaporthe grisea (percent disease control compared to untreated)

Cc1ccc2c(n1)/C(=N/OCC(Cl)CO/N=C1\CCCc3ccc(C)nc31)CCC2 (centres unmarked) [P.24]
≥ 80%: pest or weed control at 200 ppm [1] | pest or weed control at 200 ppm (Pyrenophora teres) | pest or weed control at 200 ppm [2] | pest or weed control at 200 ppm [3] | inhibition at 200 ppm (Pythium ultimum) | inhibition at 200 ppm [4] | pest or weed control at 200 ppm [5]

COc1ccc2c(n1)/C(=N/OCC1(CO/N=C3\CCCc4ccc(OC)nc43)CC1)CCC2 [P.13]
≥ 80%: pest or weed control at 200 ppm [1] | pest or weed control at 200 ppm (Pyrenophora teres) | inhibition at 200 ppm [6] | pest or weed control at 200 ppm [2] | pest or weed control at 200 ppm [3] | inhibition at 200 ppm [4] | pest or weed control at 200 ppm [5]

Cc1ccc2c(n1)/C(=N/OCC(CO/N=C1\CCCc3ccc(C)nc31)c1ccccc1)CCC2 (centres unmarked) [P.04]
≥ 80%: pest or weed control at 200 ppm [1] | pest or weed control at 200 ppm (Pyrenophora teres) | pest or weed control at 200 ppm (Phytophthora infestans) | pest or weed control at 200 ppm [2] | pest or weed control at 200 ppm [3] | inhibition at 200 ppm [4] | pest or weed control at 200 ppm [5]

COCc1cc(C)c2c(n1)/C(=N/OCC(C)(C)CO/N=C1\CCCc3ccc(C)nc31)CCC2 [P.42]
≥ 80%: pest or weed control at 200 ppm [1] | pest or weed control at 200 ppm (Pyrenophora teres) | pest or weed control at 200 ppm [7] | pest or weed control at 200 ppm [2] | pest or weed control at 200 ppm [3] | inhibition at 200 ppm (Pythium ultimum) | inhibition at 200 ppm [4] | pest or weed control at 200 ppm [5]

Cc1ccc2c(n1)/C(=N/OCC(F)CO/N=C1\CCCc3ccc(C)nc31)CCC2 (centres unmarked) [P.14]
≥ 80%: pest or weed control at 200 ppm [1] | pest or weed control at 200 ppm [2] | pest or weed control at 200 ppm [3] | inhibition at 200 ppm (Pythium ultimum) | inhibition at 200 ppm [4] | pest or weed control at 200 ppm [5]

Cc1cc(Cl)c2c(n1)/C(=N/OCC1(CO/N=C3\CCCc4c(Cl)cc(C)nc43)CC1)CCC2 [P.12]
≥ 80%: inhibition at 200 ppm [6] | inhibition at 200 ppm [4]

FCc1ccnc2c1CCC/C2=N\OCCCO/N=C1\CCCc2c(CF)ccnc21 [P.36]
≥ 80%: inhibition at 200 ppm [4]

Cc1cc(CF)nc2c1CCC/C2=N\OCC(C)(C)CO/N=C1\CCCc2c(C)cc(CF)nc21 [P.34]
≥ 80%: pest or weed control at 200 ppm (Pyrenophora teres) | pest or weed control at 200 ppm [7] | pest or weed control at 200 ppm [3] | inhibition at 200 ppm [4] | pest or weed control at 200 ppm [5]

Cc1cc(C(F)F)c2c(n1)/C(=N/OCC1(CO/N=C3\CCCc4c(C(F)F)cc(C)nc43)CC1)CCC2 [P.45]
≥ 80%: pest or weed control at 200 ppm [1] | pest or weed control at 200 ppm (Pyrenophora teres) | pest or weed control at 200 ppm [7] | pest or weed control at 200 ppm [2] | pest or weed control at 200 ppm [3] | inhibition at 200 ppm [4] | pest or weed control at 200 ppm [5]

Cc1ccc2c(n1)/C(=N/OCC(C)(C)CO/N=C1\CCCc3c(N4CCCC4)cc(C)nc31)CCC2 [P.41]
≥ 80%: pest or weed control at 200 ppm [1] | pest or weed control at 200 ppm (Pyrenophora teres) | inhibition at 200 ppm [6] | inhibition at 200 ppm [4] | pest or weed control at 200 ppm [5]

Cc1ccc2c(n1)/C(=N/OCC(C)(C)CO/N=C1\CCc3ccc(Cl)nc31)CCC2 [P.01]
≥ 80%: inhibition at 200 ppm [4]

CC(C)(CO/N=C1\CCCc2cc3c(nc21)CCCC3)CO/N=C1\CCCc2cc3c(nc21)CCCC3 [P.50]
≥ 80%: pest or weed control at 200 ppm [1] | pest or weed control at 200 ppm (Pyrenophora teres) | inhibition at 200 ppm [6] | inhibition at 200 ppm [4] | pest or weed control at 200 ppm [5]

Cc1c2c(nc3ccccc13)/C(=N/OCCCO/N=C1\CCCc3c1nc1ccccc1c3C)CCC2 [P.25]
≥ 80%: pest or weed control at 200 ppm [1] | pest or weed control at 200 ppm (Pyrenophora teres) | pest or weed control at 200 ppm [2] | inhibition at 200 ppm [4] | pest or weed control at 200 ppm [5]

CSc1cc(C)nc2c1CCC/C2=N\OCCCO/N=C1\CCCc2c(SC)cc(C)nc21 [P.43]
≥ 80%: inhibition at 200 ppm [4]

Cc1ccc2c(n1)/C(=N/OCCCO/N=C1\CCCc3ccc(C(F)(F)F)nc31)CCC2 [P.47]
≥ 80%: pest or weed control at 200 ppm [1] | pest or weed control at 200 ppm (Pyrenophora teres) | pest or weed control at 200 ppm [2] | pest or weed control at 200 ppm [3] | inhibition at 200 ppm [4] | pest or weed control at 200 ppm [5]

Cc1ccc2c(n1)/C(=N/OCC(C)(C)CO/N=C1\CCc3ccc(C)nc31)CCC2 [P.08]
≥ 80%: pest or weed control at 200 ppm [1] | inhibition at 200 ppm [4]

Cc1cc(CF)c2c(n1)/C(=N/OCCCO/N=C1\CCCc3c(CF)cc(C)nc31)CCC2 [P.48]
≥ 80%: pest or weed control at 200 ppm [1] | pest or weed control at 200 ppm (Pyrenophora teres) | pest or weed control at 200 ppm [7] | pest or weed control at 200 ppm [2] | pest or weed control at 200 ppm [3] | inhibition at 200 ppm (Pythium ultimum) | inhibition at 200 ppm [4] | pest or weed control at 200 ppm [5]

Cc1ccc2c(n1)/C(=N/OCC1(CO/N=C3\CCCc4ccc(C)nc43)CC1)CCC2 [P.03]
≥ 80%: pest or weed control at 200 ppm [1] | pest or weed control at 200 ppm (Pyrenophora teres) | pest or weed control at 200 ppm [2] | pest or weed control at 200 ppm [3] | inhibition at 200 ppm (Pythium ultimum) | inhibition at 200 ppm [4] | pest or weed control at 200 ppm [5]

Cc1ccc2c(n1)/C(=N/OCC(C)(C)CO/N=C1\CC(C)Cc3ccc(-c4ccc(Cl)cc4)nc31)CCC2 (centres unmarked) [P.22]
≥ 80%: inhibition at 200 ppm [4] | pest or weed control at 200 ppm [5]

Cc1c2c(nc3ccccc13)/C(=N/OCC(C)(C)CO/N=C1\CCCc3c1nc1ccccc1c3C)CCC2 [P.28]
≥ 80%: pest or weed control at 200 ppm [1] | pest or weed control at 200 ppm (Pyrenophora teres) | inhibition at 200 ppm [4] | pest or weed control at 200 ppm [5]

Cc1c2c(nc3ccccc13)/C(=N/OCC1(CO/N=C3\CCCc4c3nc3ccccc3c4C)CC1)CCC2 [P.27]
≥ 80%: pest or weed control at 200 ppm [1] | pest or weed control at 200 ppm (Pyrenophora teres) | inhibition at 200 ppm [4] | pest or weed control at 200 ppm [5]

Cc1ccc2c(n1)/C(=N/OCC(O)CO/N=C1\CCCc3ccc(C)nc31)CCC2 (centres unmarked) [P.11]
≥ 80%: pest or weed control at 200 ppm (Pyrenophora teres) | pest or weed control at 200 ppm [2] | pest or weed control at 200 ppm [3] | pest or weed control at 200 ppm [5]
